Source: publication PMC7447632, “Highly functionalized β-lactams and 2-ketopiperazines as TRPM8 antagonists with antiallodynic activity” (Scientific Reports, 2020)

Key:
TRPM8 = conditions: cited from earlier work; for IC50: Figure 1, literature values; for EC50: Figure 1, literature value
[1] = system: MDA-MB-231 (breast adenocarcinoma); experiment: SRB cytotoxicity assay, MDA-MB-231; type: cell-based; conditions: 72 h, SRB; for TGI MDA-MB-231: total growth inhibition; for TGI MDA-MB-231 / CC50: unit inferred; for GI50 / CC50: Homo sapiens, MDA-MB-231; for CC50: read-out: LC50 MDA-MB-231
Procedure: (§1) Human tumor cell lines used in this study were purchased from the ATCC. A-549 (CCL-185), lung carcinoma; HT-29 (HTB-38), colorectal adenocarcinoma; MDA-MB-231 (HTB-26), breast adenocarcinoma; PSN1, pancreas adenocarcinoma.
(§2) All cell lines were maintained in DMEM (Dulbecco’s Modified Eagle's Medium) culture medium supplemented with 10% FBS (Fetal Bovine Serum), 100 Units/mL penicillin/streptomycin at 37 °C, 5% CO2 and 95% humidity.
(§3) Triplicate cultures were incubated for 72 h in the presence or absence of test compounds in dose–response curves (10 concentrations, typically ranging from 10 to 0.0026 µg/mL). A colorimetric assay using sulforhodamine B (SRB) was adapted for quantitative measurement of cell growth and cytotoxicity. A more detailed information on this assay is provides in the supplementary information. GI50 is the compound concentration that produces 50% inhibition on cell growth as compared to control cells.
(§4) In vitro bioassays for the detection of antitumor activity
(§5) The aim of this assay is to evaluate the in vitro cytostatic (ability to delay or arrest tumor cell growth) or cytotoxic (ability to kill tumor cells) activity of the samples […]
(§6) Name Nº ATCC Species Tissue Characteristics
(§7) A549 CCL-185 human lung lung carcinoma (NSCLC)
(§8) HT29 HTB-38 human colon colorectal adenocarcinoma
(§9) MDA-MB-231 HTB-26 human breast breast adenocarcinoma
(§10) PSN1 CRM-CRL-3211 human pancreas pancreas adenocarcinoma […]
(§11) A colorimetric assay, using Sulforhodamine B (SRB) reaction has been adapted to provide a quantitative measurement of cell growth and viability (following the technique described by Skehan et al. J. Natl. Cancer Inst. 1990, 82, 1107-1112 […]
(§12) This form of assay employs 96-well cell culture microplates following the standards of the American National Standards Institute and the Society for Laboratory […]
(§13) used in this study were obtained from the American Type Culture Collection (ATCC) and derive from different types of human cancer.
(§14) A549, HT29, MDA-MB-231 and PSN1 cells were maintained in Dulbecco’s
(§15) Modified Eagle Medium (DMEM) supplemented with 10% Fetal Bovine Serum (FBS), 2mM L-glutamine, 100 U/mL penicillin, and 100 U/mL streptomycin at 37 °C, 5% CO2 and 98% humidity. For the experiments, cells were harvested from subconfluent cultures using trypsinization and resuspended in fresh medium before counting and […]
(§16) A549, HT29, MDA-MB-231 and PSN1 cells were seeded in 96 well microtiter plates, at 5000 cells per well in aliquots of 150 µL, and allowed to attach to the plate surface for 18 hours (overnight) in drug free medium. After that, one control (untreated) plate of each cell line was fixed (as described below) and used for time zero reference value. Culture plates were then treated with test compounds (50 µL aliquots of 4X stock […]
(§17) solutions in complete culture medium plus 4% DMSO) using ten 2/5 serial dilutions (concentrations ranging from 10 to 0.003 µg/mL) and triplicate cultures (1% final concentration in DMSO). After 72 hours treatment, the antitumor effect was measured by using the SRB methodology: Briefly, cells were washed twice with PBS, fixed for 15 min in 1% glutaraldehyde solution at room temperature, rinsed twice in PBS, and stained in 0.4% SRB solution for 30 min at room temperature. Cells were then rinsed several times with 1% acetic acid solution and air-dried at room temperature. SRB was then extracted in 10 mM trizma base solution and the absorbance measured in an automated spectrophotometric plate reader at 490 nm.
(§18) Effects on cell growth and survival were estimated by applying the NCI algorithm (Boyd MR and Paull KD. Drug Dev. Res. 1995, 34, 91-109, DOI:10.1002/ddr.430340203). The values obtained in triplicate cultures were fitted by nonlinear regression to a four-parameters logistic curve by nonlinear regression analysis. . Using the absorbance measurements [time zero, (Tz), control growth, (C), and test growth in the presence of drug at the ten concentration levels (Ti)], the […]

[2] = system: A549 (lung carcinoma, NSCLC); experiment: SRB cytotoxicity assay, A549; type: cell-based; conditions: 72 h, SRB; for TGI A549: total growth inhibition; for TGI A549 / CC50: unit inferred; for GI50 / CC50: Homo sapiens, A549; for CC50: read-out: LC50 A549
Procedure: as §1, §2, §3, §4, §5, §6, §7, §8, §9, §10, §11, §12, §13, §14, §15, §16, §17, §18

[3] = system: PSN1 (pancreas adenocarcinoma); experiment: SRB cytotoxicity assay, PSN1; type: cell-based; conditions: 72 h, SRB; for TGI PSN1: total growth inhibition; for TGI PSN1 / CC50: unit inferred; for GI50 / CC50: Homo sapiens, PSN1; for CC50: read-out: LC50 PSN1
Procedure: as §1, §2, §3, §4, §5, §6, §7, §8, §9, §10, §11, §12, §13, §14, §15, §16, §17, §18

rat TRPM8 channel = molecular target: T1, rat TRPM8 channel (Rattus norvegicus, UniProt Q8R455); experiment: Ca2+ microfluorometry, menthol-induced Ca2+ influx in HEK293 cells expressing rat TRPM8; type: cell-based; conditions: 100 µM menthol, HEK-rTRPM8; for % Blockade 5 µM: 5 µM compound; for % Blockade 50 µM: 50 µM compound; for IC50: Ca2+ microfluorometry
T1 construct: expressed in transfected cells; host or cells: HEK293 (stably transfected)
Procedure: The ability to inhibit menthol-induced Ca^2+ intracellular influx into the cytosol on HEK293 cells heterologously expressing the rat TRPM8 channel was measured and compared to that of AMTB, a well-known TRPM8 antagonist. Representative recordings of fluorescence obtained in microfluorometry experiments for selected compounds are in Supplementary Fig. S3.
(§19) Human embryonic kidney cell line (HEK) stably transfected with rTRPM8 or h-TRPV1 were used as previously described. Briefly, cells were seeded in 96-well plates at a cell density of 30,000 cells 2 days before treatment. Buffer used was HBBS (in mM): 138 NaCl, 5.33 KCl, 1.26 CaCl2, 0.5 MgCl-6H2O, 0.4 MgSO4-7H2O, 4 NaHCO3 0.44 KH2PO4, 0.3 Na2HPO4, pH 7.4. The day of treatment the medium was replaced with 100 µL of the dye loading solution Fluo-4 NW supplemented with probenecid 2.5 mM. After incubation, plates were transferred to a fluorescence plate reader (Polastar BMG). In the experimental protocol, the baseline fluorescence was recorded ([…]) for 3 cycles. After, vehicle, compound at different concentrations and the corresponding antagonist, 10 µM AMTB for TRPM8 or 10 µM Ruthenium Red for TRPV1 were added to the well. Fluorescence intensity was recorded during 7 cycles more. Finally, the agonist 100 µM menthol for TRPM8 or 1 µM capsaicin for TRPV1 was added and fluorescence intensity was recorded during 10 cycles more.
The degree of inhibition of TRPM8 channel gating was calculated by comparison to calcium increase signal elicited by test substances and menthol at 100 µM. Decrease of menthol signal was expressed as percentage of inhibition (%). All data are expressed as mean ± standard deviation (SD). Each condition was assessed by triplicate (n = 3) in 3 independent experiments (N = 3). Z-factor was calculated in each assay using the following equation: […]. In all the experiments Z-factor was ≥ 0.5. To calculate IC50, normalized responses (%) versus log [µM] were adjusted to a non-linear fit with variable slope, a four-parameter dose–response curve following curve Y = 100/(1 + 10^((Log IC50-X)*HillSlope)) where […].

hTRPV1 channels = molecular target: T2, hTRPV1 channels (Homo sapiens, UniProt Q8NER1); experiment: Ca2+ microfluorometry in HEK cells expressing hTRPV1 (capsaicin); type: cell-based; conditions: 1 µM capsaicin; for TRPV1 Blockade (%) 5 µM: 5 µM compound; for TRPV1 Blockade (%) 50 µM: 50 µM compound
T2 construct: expressed in transfected cells; host or cells: HEK (stably transfected)
Procedure: β-Lactam and 2-ketopiperazine derivatives were also assayed for their activity in cell expressing hTRPV1 channels. No significant antagonist activity was measured for any derivatives within both chemotypes (Supplementary Tables S1, S2, and Fig. S3), indicating their selectivity for TRPM8 channels.
as §19
Table S1. Activity at hTRPV1 of β–lactams derived from phenylalaninol conjugates
Compd. Isomer Isomer TRPV1 Blockade (%)
Table S2. Activity at hTRPV1 of 2-ketopiperazines derived from phenylalaninol

[4] = system: HT29 (colorectal adenocarcinoma); experiment: SRB cytotoxicity assay, HT29; type: cell-based; conditions: 72 h, SRB; for TGI HT29: total growth inhibition; for TGI HT29 / CC50: unit inferred; for GI50 / CC50: Homo sapiens, HT-29; for CC50: read-out: LC50 HT29
Procedure: as §1, §2, §3, §4, §5, §6, §7, §8, §9, §10, §11, §12, §13, §14, §15, §16, §17, §18

T1 sequence (Q8R455 whole entry): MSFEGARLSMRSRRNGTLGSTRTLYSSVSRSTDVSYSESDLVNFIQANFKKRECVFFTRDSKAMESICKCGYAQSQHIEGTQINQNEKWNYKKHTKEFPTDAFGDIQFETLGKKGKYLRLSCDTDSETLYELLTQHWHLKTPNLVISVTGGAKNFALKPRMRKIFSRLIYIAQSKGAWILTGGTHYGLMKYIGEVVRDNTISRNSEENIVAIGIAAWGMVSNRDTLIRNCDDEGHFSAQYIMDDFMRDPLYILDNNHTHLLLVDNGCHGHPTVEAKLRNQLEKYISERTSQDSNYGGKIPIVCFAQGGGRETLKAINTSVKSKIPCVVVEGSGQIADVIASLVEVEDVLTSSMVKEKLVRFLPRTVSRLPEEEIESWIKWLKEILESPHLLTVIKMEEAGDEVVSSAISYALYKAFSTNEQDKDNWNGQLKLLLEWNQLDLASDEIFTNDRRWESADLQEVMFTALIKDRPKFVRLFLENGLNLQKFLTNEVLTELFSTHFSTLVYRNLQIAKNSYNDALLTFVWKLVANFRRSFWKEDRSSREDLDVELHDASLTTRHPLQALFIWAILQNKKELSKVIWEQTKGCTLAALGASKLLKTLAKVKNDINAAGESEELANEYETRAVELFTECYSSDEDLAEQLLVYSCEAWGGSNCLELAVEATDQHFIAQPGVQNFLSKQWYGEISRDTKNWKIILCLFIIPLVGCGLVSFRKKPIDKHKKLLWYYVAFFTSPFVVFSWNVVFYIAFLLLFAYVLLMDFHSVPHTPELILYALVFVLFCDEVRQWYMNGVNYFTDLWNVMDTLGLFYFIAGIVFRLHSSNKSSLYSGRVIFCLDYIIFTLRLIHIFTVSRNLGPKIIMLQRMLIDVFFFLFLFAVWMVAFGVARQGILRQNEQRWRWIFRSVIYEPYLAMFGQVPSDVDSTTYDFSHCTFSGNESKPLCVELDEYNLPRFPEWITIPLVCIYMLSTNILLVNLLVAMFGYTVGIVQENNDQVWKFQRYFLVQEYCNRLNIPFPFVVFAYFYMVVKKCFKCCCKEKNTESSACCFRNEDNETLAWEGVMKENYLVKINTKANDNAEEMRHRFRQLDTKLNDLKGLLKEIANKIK
T2 sequence (Q8NER1 whole entry): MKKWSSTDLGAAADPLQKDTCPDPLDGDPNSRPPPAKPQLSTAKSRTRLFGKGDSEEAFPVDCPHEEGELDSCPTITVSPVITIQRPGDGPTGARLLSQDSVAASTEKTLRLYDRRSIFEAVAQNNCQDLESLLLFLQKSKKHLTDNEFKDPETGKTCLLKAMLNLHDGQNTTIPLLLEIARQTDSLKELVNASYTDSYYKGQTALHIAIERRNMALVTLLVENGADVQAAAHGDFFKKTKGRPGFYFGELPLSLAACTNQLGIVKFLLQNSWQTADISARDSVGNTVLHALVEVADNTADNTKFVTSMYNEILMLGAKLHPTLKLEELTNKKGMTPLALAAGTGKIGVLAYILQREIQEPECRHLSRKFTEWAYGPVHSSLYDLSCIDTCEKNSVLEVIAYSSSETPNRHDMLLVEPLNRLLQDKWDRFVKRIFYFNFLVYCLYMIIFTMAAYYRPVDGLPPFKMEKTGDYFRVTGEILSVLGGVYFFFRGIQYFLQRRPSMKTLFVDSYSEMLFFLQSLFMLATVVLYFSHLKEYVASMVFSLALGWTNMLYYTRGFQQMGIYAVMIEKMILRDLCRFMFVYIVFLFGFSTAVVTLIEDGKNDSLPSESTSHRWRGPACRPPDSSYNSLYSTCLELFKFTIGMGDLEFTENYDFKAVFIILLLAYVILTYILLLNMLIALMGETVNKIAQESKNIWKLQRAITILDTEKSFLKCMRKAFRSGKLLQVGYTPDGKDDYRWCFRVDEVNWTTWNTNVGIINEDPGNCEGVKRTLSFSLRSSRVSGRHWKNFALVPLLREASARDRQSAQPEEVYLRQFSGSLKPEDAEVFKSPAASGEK

Structure (SMILES): Cc1cccc(COc2ccccc2C(=O)N(CCCN)Cc2cccs2)c1 [AMTB]
- IC50 (TRPM8): 0.16 µM

Structure (SMILES): COC(=O)[C@H](Cc1c[nH]c2ccccc12)N(Cc1ccccc1)Cc1ccccc1 [Bn2-Trp-OMe]
- IC50 (TRPM8): 0.0002 µM

Structure (SMILES): O=C(OCc1ccccc1)C(Cc1ccccc1)N1C[C@@H](Cc2ccccc2)N(C(=O)OCc2ccccc2)CC1=O (some centres unmarked) [Compound 15ab]
- TGI MDA-MB-231 [1]: > 17.8 µM
- GI50 [1]: > 17.8 µM
- CC50 [1]: > 17.8 µM
- TGI A549 [2]: > 17.8 µM
- GI50 [2]: > 17.8 µM
- CC50 [2]: > 17.8 µM
- TGI PSN1 [3]: > 17.8 µM
- GI50 [3]: 6.4 µM
- CC50 [3]: > 17.8 µM
- % Blockade 5 µM (rat TRPM8 channel): 101.4 ± 6.1%
- % Blockade 50 µM (rat TRPM8 channel): 106 ± 5.06%
- IC50 (rat TRPM8 channel): 1.8 ± 1.9 µM
- TRPV1 Blockade (%) 5 µM (hTRPV1 channels): 6.3±2.1%
- TRPV1 Blockade (%) 50 µM (hTRPV1 channels): 7.8±4.1%
- TGI HT29 [4]: > 17.8 µM
- GI50 [4]: > 17.8 µM
- CC50 [4]: > 17.8 µM

Structure (SMILES): C[C@@H]1C(=O)N(C(Cc2ccccc2)C(=O)OCc2ccccc2)C[C@@H](Cc2ccccc2)N1C(=O)OCc1ccccc1 (some centres unmarked) [Compound 30ab]
- TGI MDA-MB-231 [1]: > 17.3 µM
- GI50 [1]: > 17.3 µM
- CC50 [1]: > 17.3 µM
- TGI A549 [2]: > 17.3 µM
- GI50 [2]: 12.7 µM
- CC50 [2]: > 17.3 µM
- TGI PSN1 [3]: > 17.3 µM
- GI50 [3]: 8.3 µM
- CC50 [3]: > 17.3 µM
- % Blockade 5 µM (rat TRPM8 channel): 101.7 ± 5.3%
- % Blockade 50 µM (rat TRPM8 channel): 101.2 ± 11.4%
- IC50 (rat TRPM8 channel): 0.16 µM
- TRPV1 Blockade (%) 5 µM (hTRPV1 channels): 9.2±2.1%
- TRPV1 Blockade (%) 50 µM (hTRPV1 channels): 13.9±4.8%
- TGI HT29 [4]: > 17.3 µM
- GI50 [4]: > 17.3 µM
- CC50 [4]: > 17.3 µM

Structure (SMILES): O=C1NC(c2cccc([N+](=O)[O-])c2)=CCN1c1ccccc1O [Icilin]
- EC50 (TRPM8): 0.005 µM

Structure (SMILES): C[C@H](c1cc(F)cc(F)c1)N(C(=O)c1ccccc1)[C@@H](C(N)=O)c1ccccc1 [KPR-2579]
- IC50 (TRPM8): 0.008 µM

Structure (SMILES): CC1CCC(C(C)C)C(O)C1 (centres unmarked) [Menthol]
- EC50 (TRPM8): 200 to 500 µM

Structure (SMILES): C[C@H](c1ccc(F)cc1)N(Cc1cccc(C(=O)O)c1)C(=O)c1cnc2ccccc2c1 [PF-05105679]
- IC50 (TRPM8): 0.181 µM

Structure (SMILES): O=C(O)c1ccc(S(=O)(=O)N(Cc2ccc(OC(F)(F)F)cc2)c2ncc(C(F)(F)F)cc2Cl)cc1 [RQ 00203078]
- IC50 (TRPM8): 0.0083 µM
